Values of other authors in US20140357595A1, “METHODS OF PREVENTING AND TREATING RECURRENCE OF A HEPATITIS C VIRUS INFECTION IN A SUBJECT AFTER THE SUBJECT HAS RECEIVED A LIVER TRANSPLANT” (priority 2013, published 2014).

Experiments:
[1] = biological target: T1, HCV NS5B RNA dependent RNA polymerase (Hepatitis C virus genotype 1a, UniProt P27958)
T1 construct: the HCV NS5B RNA dependent RNA polymerase

[2] = clinical trials

T1 sequence (P27958 2421-3011): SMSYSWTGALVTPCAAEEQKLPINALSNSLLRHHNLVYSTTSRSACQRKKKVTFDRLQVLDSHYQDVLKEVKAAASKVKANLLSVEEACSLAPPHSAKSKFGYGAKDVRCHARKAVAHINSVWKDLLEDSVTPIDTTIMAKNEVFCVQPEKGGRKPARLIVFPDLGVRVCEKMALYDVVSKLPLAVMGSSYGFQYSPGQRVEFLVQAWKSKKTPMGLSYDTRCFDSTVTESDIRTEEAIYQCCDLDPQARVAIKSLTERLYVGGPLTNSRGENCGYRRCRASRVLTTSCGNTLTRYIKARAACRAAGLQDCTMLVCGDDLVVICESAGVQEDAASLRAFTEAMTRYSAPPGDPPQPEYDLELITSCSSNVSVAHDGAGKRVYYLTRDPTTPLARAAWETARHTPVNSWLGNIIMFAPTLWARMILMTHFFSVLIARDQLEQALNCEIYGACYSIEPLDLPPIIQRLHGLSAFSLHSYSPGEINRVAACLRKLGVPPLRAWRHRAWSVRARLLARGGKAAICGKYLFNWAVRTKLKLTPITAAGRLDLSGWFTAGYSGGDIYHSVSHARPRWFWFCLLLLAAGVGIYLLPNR

Compound	inhibition of HCV replication mediated by the HCV NS5B RNA dependent RNA polymerase [1]	tolerability [2]
C[C@@]1(F)[C@H](O)[C@@H](COP(=O)(O)OP(=O)(O)OP(=O)(O)O)O[C@H]1n1ccc(=O)[nH]c1=O [5′-triphosphate metabolite of Compound 1]	potent and selective inhibitor	
CC(C)OC(=O)[C@H](C)N[P@](=O)(OC[C@H]1O[C@@H](n2ccc(=O)[nH]c2=O)[C@](C)(F)[C@@H]1O)Oc1ccccc1 [Compound 1, (S)-isopropyl 2-(((S)-(((2R,3R,4R,5R)-5-(2,4-dioxo-3,4-dihydropyrimidin-1(2H)-yl)-4-fluoro-3-hydroxy-4-methyltetrahydrofuran-2-yl)methoxy)(phenoxy)phosphoryl)amino)propanoate]		well-tolerated
